Experimental data taken from the supplement of paper PMC6470124.

What was measured:
[1] = LC retention time (Atlantis T3, 5-95% MeOH gradient, 0.1% formic acid); higher = more retained / less polar
In short: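 Retention times were recorded for reference standards (purity ≥ 95%) on a polar reversed-phase C18 column (Atlantis T3, 3 × 150 mm, 3 μm) at 0.3 mL/min. Elution used water and methanol, each with 0.1% formic acid, in a gradient from 5 to 95% methanol over 17.5 min. Detection was by high-resolution tandem mass spectrometry on a QExactive Plus, with positive and negative electrospray in separate runs. Peaks were found and integrated in TraceFinder (5 ppm tolerance, at least three points per peak) and then checked by hand.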

[2] = absolute recovery over mixed-bed multilayer solid-phase extraction; higher = better recovery; conditions: enrichment method: SPE
In short: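 Wastewater (100–250 mL, adjusted to pH 6.5 and glass-fibre filtered) or 1000 mL unfiltered nanopure water was loaded on a three-layer mixed-bed cartridge and eluted with basic then acidic ethyl acetate/methanol. Standards were spiked before extraction, after it, or not at all, at 200 ng/L (water) or 1000 ng/L (wastewater), with class exceptions. Internal standards were added afterwards, then LC-HRMS/MS ran in both ionisation modes. Absolute recovery compares background-corrected response ratios of pre- versus post-spiked samples, averaged over at least two replicates.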

[3] = absolute recovery over vacuum-assisted evaporative concentration; higher = better recovery; conditions: enrichment method: VEC
In short: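 After spiking with standards before concentration, after concentration or not at all, at 1000 ng/L for wastewater or 200 ng/L for nanopure and surface water with class- and compound-specific adjustments, samples of 6 mL influent, 15 mL effluent and 60 mL surface or nanopure water were evaporated at 55 °C and 20 mbar to about 0.3 mL. They were brought to 0.4 mL, centrifuged, given internal standards and analysed by LC-HRMS/MS. Absolute recovery, (response ratio pre − unspiked)/(post − unspiked) × 100, used averages of ≥ 2 replicates.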

Row | Structure (SMILES) | LC retention time [1] | absolute recovery ([2]; nanopure water) | absolute recovery ([2]; surface water) | absolute recovery ([2]; wastewater effluent) | absolute recovery ([2]; wastewater influent) | absolute recovery ([3]; wastewater effluent) | absolute recovery ([3]; wastewater influent)
1 | CC(C)N(C(=O)CCl)c1ccccc1 [Propachlor] | 18.4 min | 84.3% | 87% | 81.1% | 93.3% | 83.8% | 76.9%
2 | CC(C)N1C(=O)c2ccccc2[N-]S1(=O)=O [Bentazon] | 17.8 min | 97.3% | 97.5% |  | 93.1% | 105% | 101%
3 | COc1cccc(C2(O)CCCCC2C[N+](C)(C)[O-])c1 (stereo not given) [Tramadol-N-oxide] | 12.7 min | 99.4% | 91.3% | 90.2% | 95% | 104% | 102%
4 | CON=C(C1=NOCCO1)c1ccccc1Oc1ncnc(Oc2ccccc2Cl)c1F [Fluoxastrobin] | 19.8 min | 97.5% | 80.2% | 90.4% | 83% | 94.1% | 112%
5 | O=C1Nc2ccc(Cl)cc2C(c2ccccc2Cl)=NC1O (stereo not given) [Lorazepam] | 18.3 min | 104% | 94.3% | 97.3% | 87.4% | 108% | 104%
6 | CN1C(=O)CC(C)(c2ccccc2)C1=O (stereo not given) [Methsuximide] | 16.6 min | 99.2% | 84.5% | 89.9% | 89.6% | 99% | 85.5%
7 | COc1ccc2c(c1OC)C(=O)OC2C1c2c(cc3c(c2OC)OCO3)CC[NH+]1C (stereo not given) [Noscapin] | 12.8 min | 80.1% | 89.2% | 91.8% | 103% | 85.7% | 89.8%
8 | C[Si](Cn1cncn1)(c1ccc(F)cc1)c1ccc(F)cc1 [Flusilazol] | 20.4 min | 103% |  | 99.5% | 82.4% | 114% | 107%
9 | CCCC(Cn1cncn1)c1ccc(Cl)cc1Cl (stereo not given) [Penconazol] | 20.9 min | 98.5% | 97.1% | 100% | 87.3% | 105% | 105%
10 | [NH3+]C12CC3CC(CC(C3)C1)C2 [Amantadine] | 12.1 min | 90.7% | 79.3% | 86.2% | 87.2% | 104% | 114%
11 | CC(=O)N(C)N(C(=O)C(=O)N(C)C)c1ccccc1 [AMDOPH] | 13.9 min | 94.8% | 93.2% | 93.2% | 90.8% | 114% | 114%
12 | CC(C)c1c(C(=O)Nc2ccccc2)c(-c2ccccc2)c(-c2ccc(F)cc2)n1CCC(O)CC(O)CC(=O)[O-] (stereo not given) [Atorvastatin] | 19.8 min | 31% | 42.7% | 45.5% | 46.5% | 49.3% | 57.8%
13 | COCC(=O)N(c1c(C)cccc1C)C(C)C(=O)OC (stereo not given) [Metalaxyl] | 18.4 min | 96.6% | 95.8% | 93.6% | 94.7% | 103% | 97.8%
14 | O=C([O-])C(c1ccccc1Cl)[NH+]1CCc2sccc2C1 (stereo not given) [Clopidogrel-Carboxylic-Acid] | 14.8 min | 93.2% | 94% | 91.1% | 92.8% | 103% | 102%
15 | COC(=O)C(Cc1ccccc1)NC(=O)C(CC(=O)[O-])[NH2+]CCC(C)(C)C (stereo not given) [Neotam] | 17.2 min | 91.9% | 91.3% | 93.8% | 95.2% | 89.2% | 81.8%
16 | CC(C)Nc1nc(N)nc(O)n1 [Atrazin-desethyl-2-hydroxy] | 7.67 min | 76.8% | 74.2% | 71.2% | 92.3% | 107% | 93.7%
17 | Cc1ncc([N+](=O)[O-])n1CCO [Metronidazol] | 10 min | 95.6% | 91.3% | 87.1% | 95.9% | 102% | 102%
18 | COCC(C)N(C(=O)CCl)c1c(C)csc1C (stereo not given) [Dimethenamid] | 19.6 min | 94.4% | 92.8% | 91.7% | 92.1% | 96% | 92.1%
19 | COC(=O)Nc1nc2ccccc2[nH]1 [Carbendazim] | 10.8 min | 96.1% | 94.3% | 93.2% | 94.1% | 105% | 103%
20 | Cc1cc(Cl)ccc1OCCCC(=O)[O-] [MCPB] | 20.3 min | 100% | 95.2% | 97.5% | 108% | 103% | 
21 | COc1ccc(NC(=O)N(C)C)cc1Cl [Metoxuron] | 16 min | 104% | 92.8% | 90.2% | 129% | 104% | 98.1%
22 | CC(C)(C)Nc1nc(N)nc(O)n1 [Terbutylazin-desethyl-2-hydroxy] | 9.56 min | 89.9% | 102% | 96.7% | 94.1% | 113% | 85.2%

Row | Structure (SMILES) | LC retention time [1] | absolute recovery ([2]; nanopure water) | absolute recovery ([2]; surface water) | absolute recovery ([2]; wastewater effluent) | absolute recovery ([2]; wastewater influent) | absolute recovery ([3]; wastewater effluent) | absolute recovery ([3]; wastewater influent)
23 | COC=C(C(=O)[O-])c1ccccc1Oc1cc(Oc2ccccc2C#N)ncn1 [Azoxystrobin-acid] | 18 min | 96.4% | 92.6% | 93.5% | 99.1% | 101% | 97.7%
24 | CC1CC2C3CCC4=CC(=O)C=CC4(C)C3(F)C(O)CC2(C)C1(O)C(=O)CO (stereo not given) [Betamethasone] | 18.7 min | 93.8% | 88.9% | 90.5% | 98.7% | 104% | 102%
25 | CC=C1[NH+](C)C(C)CC1(c1ccccc1)c1ccccc1 (stereo not given) [EDDP (=2-Ethylidene-1-5-dimethyl-3-3-diphenylpyrrolidin)] | 14.4 min | 33.8% | 65% | 60.2% | 75.8% | 95% | 82.3%
26 | CCOP(=S)(OCC)Oc1cc(C)nc(C(C)C)n1 [Diazinon] | 21.1 min | 77.6% | 86.9% | 80.5% | 82.8% | 27.1% | 18.9%
27 | CC([NH3+])C(O)c1ccccc1 (stereo not given) [Cathine] | 9.27 min | 75.1% | 70.2% | 68.1% | 77.6% | 104% | 96.1%
28 | Cn1nnc2ccccc21 [1-Methyl-Benzotriazol] | 14 min | 89.4% | 93.1% | 88.8% | 103% | 83.9% | 82.1%
29 | CCC(C)(C)C(=O)OC1=C(c2ccc(Cl)cc2Cl)C(=O)OC12CCCCC2 [Spirodiclofen] | 23.8 min |  | 12.2% | 18% |  | 77.8% | 44.4%
30 | COc1ccc2c3c1OC1C(=O)CCC4C(C2)[NH+](C)CCC314 (stereo not given) [Hydrocodone] | 9.79 min | 82.5% | 89.4% | 93.1% | 89.3% | 103% | 100%
31 | O=S(=O)([O-])c1ccc2ccccc2c1 [2-Naphthalenesulfonic-acid] | 17.2 min |  |  | 92.6% |  | 114% | 88.2%
32 | CS(=O)(=O)c1ccc(C(=O)[C-]2C(=O)CCCC2=O)c([N+](=O)[O-])c1 [Mesotrion] | 16 min |  | 96.5% | 94.6% | 80.1% | 103% | 103%
33 | [NH3+]CC1(CC(=O)[O-])CCCCC1 [Gabapentin] | 10.4 min | 20.3% |  |  |  | 99.5% | 98.3%
34 | C[NH+](C)CC(c1ccc(O)cc1)C1(O)CCCCC1 (stereo not given) [O-Desvenlafaxin] | 12 min | 97.4% | 89.9% | 90.6% | 77.7% |  | 97.9%
35 | Nc1nc(=O)c2ncn(CCC(CO)CO)c2[nH]1 [Penciclovir] | 7.67 min | 84.2% | 78.3% | 83% | 91.8% | 97.1% | 104%
36 | COc1ccc2cc(C(C)C(=O)[O-])ccc2c1 (stereo not given) [Naproxen] | 19.3 min | 96.1% | 96.5% | 92.8% |  | 109% | 
37 | CCc1cc(C)cc(CC)c1-c1c(OC(=O)C(C)(C)C)n2n(c1=O)CCOCC2 [Pinoxaden] | 21.2 min |  |  |  |  | 51.6% | 10.7%
38 | CCc1cccc(CC)c1N(COC)C(=O)CS(=O)(=O)[O-] [Alachlor-ESA] | 17.2 min |  |  |  |  |  | 106%
39 | Cc1c(OCC(F)(F)F)ccnc1CS(=O)c1nc2ccccc2[nH]1 (stereo not given) [Lansoprazole] | 17.1 min |  |  |  |  | 86.8% | 100%
40 | CC(C(=O)[O-])c1cccc(C(=O)c2ccccc2)c1 (stereo not given) [Ketoprofen] | 18.8 min |  |  |  |  | 110% | 96.4%
41 | CC1(C)SC2C([NH3+])C(=O)N2C1C(=O)[O-] (stereo not given) [6-Aminopenicillanic-acid] | 4.79 min |  |  |  |  | 90.3% | 86.7%
42 | [NH3+]C(CO)(CO)CO [Trometamol] | 2.85 min |  |  |  |  | 105% | 73.2%
43 | O=C([O-])C(F)(F)C(F)(F)C(F)(F)C(F)(F)C(F)(F)F [PFHxA] | 18.8 min |  |  |  |  | 95.2% | 89.4%
44 | COc1cc(Cc2c[nH+]c(N)nc2N)cc(OC)c1OC [Trimethoprim] | 10.5 min |  |  |  |  | 107% | 106%
